In patent US10800792B2, “Inhibitors of Bruton's tyrosine kinase and method of their use” (JANSSEN PHARMACEUTICA NV, priority 2015, dated 2020):

Molecular target: unphosphorylated-BTK kinase domain (UP-BTK), GST-tagged human BTK (389-659aa) (Homo sapiens (Human), UniProt Q06187)
Experiment: BTK kinase Lanthascreen binding assay
Conditions: pIC50 = negative log of the IC50 in molar
Outline: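 Values are pIC50, i.e. negative log of IC50 in molar, derived from concentration–response fitting. Each compound competes with a fluorescently labelled tracer for the unphosphorylated kinase domain.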

[1] = 60 minutes incubation, 50 nM Tracer 236
[2] = unphosphorylated-BTK kinase domain, 50 nM Tracer 236, 60 minutes

Chain of unphosphorylated-BTK kinase domain (UP-BTK), GST-tagged human BTK (389-659aa) (Q06187 389-659): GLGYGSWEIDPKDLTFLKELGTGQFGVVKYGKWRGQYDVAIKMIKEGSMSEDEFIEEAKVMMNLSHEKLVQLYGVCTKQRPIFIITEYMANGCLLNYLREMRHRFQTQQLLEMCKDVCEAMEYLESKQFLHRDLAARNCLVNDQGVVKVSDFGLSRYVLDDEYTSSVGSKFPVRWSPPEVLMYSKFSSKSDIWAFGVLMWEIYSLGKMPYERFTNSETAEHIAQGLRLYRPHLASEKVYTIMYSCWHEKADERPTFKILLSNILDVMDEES

BTK_I_binding pIC50 [1] | BTK_I_binding pIC50 [2] | Compound
6.2 | – | C=CC(=O)N1CCC[C@@H](NC(=O)c2sc3nccc4c3c2NC(=O)N4c2cccc(C)c2)C1 [Example 279, (R)—N-(1-Acryloylpiperidin-3-yl)-4-oxo-5-(m-tolyl)-4,5-dihydro-3H-1-thia-3,5,8-triazaacenaphthylene-2-carboxamide]
5.8 | – | O=C(N[C@@H]1CCCNC1)c1sc2nccc3c2c1NC(=O)N3c1ccc(Cl)c(C(F)(F)F)c1 [Example 280, (R)-5-(4-Chloro-3-(trifluoromethyl)phenyl)-4-oxo-N-(piperidin-3-yl)-4,5-dihydro-3H-1-thia-3,5,8-triazaacenaphthylene-2-carboxamide]
6.2 | – | Cc1c(Oc2ccccc2)ccc(N2C(=O)Nc3c(C(=O)N[C@@H]4CCCN(C)C4)sc4nccc2c34)c1C [Example 281, (R)-5-(2,3-Dimethyl-4-phenoxyphenyl)-N-(1-methylpiperidin-3-yl)-4-oxo-4,5-dihydro-3H-1-thia-3,5,8-triazaacenaphthylene-2-carboxamide]
– | 6.2 | Cc1cc(Oc2ccccc2)ccc1N1C(=O)Nc2c(C(=O)NCC3CCN(C)C3)sc3nccc1c23 (centres unmarked) [Example 282, 5-(2-Methyl-4-phenoxyphenyl)-N-((1-methylpyrrolidin-3-yl)methyl)-4-oxo-4,5-dihydro-3H-1-thia-3,5,8-triazaacenaphthylene-2-carboxamide]
– | 6.2 | Cc1cc(Oc2ccccc2OC(C)C)ccc1N1C(=O)Nc2c(C(=O)N[C@@H]3CCCN(C)C3)sc3nccc1c23 [Example 283, (R)-5-(4-(2-Isopropoxyphenoxy)-2-methylphenyl)-N-(1-methylpiperidin-3-yl)-4-oxo-4,5-dihydro-3H-1-thia-3,5,8-triazaacenaphthylene-2-carboxamide]
– | 6.2 | Cc1cc(Oc2ccccc2)ccc1N1C(=O)Nc2c(C(=O)NC[C@H]3CCCN3C)sc3nccc1c23 [Example 285, (R)-5-(2-Methyl-4-phenoxyphenyl)-N-((1-methylpyrrolidin-2-yl)methyl)-4-oxo-4,5-dihydro-3H-1-thia-3,5,8-triazaacenaphthylene-2-carboxamide]
– | 6.2 | Cc1cc(Oc2cc(F)cc(F)c2)ccc1N1C(=O)Nc2c(C(=O)N[C@@H]3CCCN(C)C3)sc3nccc1c23 [Example 286, (R)-5-(4-(3,5-Difluorophenoxy)-2-methylphenyl)-N-(1-methylpiperidin-3-yl)-4-oxo-4,5-dihydro-3H-1-thia-3,5,8-triazaacenaphthylene-2-carboxamide]
– | 6.2 | C=CC(=O)N1CCC[C@@H](NC(=O)c2sc3nccc4c3c2NC(=O)N4c2cccc(C(F)(F)F)c2)C1 [Example 288, (R)—N-(1-Acryloylpiperidin-3-yl)-4-oxo-5-(3-(trifluoromethyl)phenyl)-4,5-dihydro-3H-1-thia-3,5,8-triazaacenaphthylene-2-carboxamide]
– | 6.2 | Cc1ccc(Oc2ccc(N3C(=O)Nc4c(C(=O)N[C@@H]5CCCN(C)C5)sc5nccc3c45)c(C)c2)cc1 [Example 290, (R)-5-(2-Methyl-4-(p-tolyloxy)phenyl)-N-(1-methylpiperidin-3-yl)-4-oxo-4,5-dihydro-3H-1-thia-3,5,8-triazaacenaphthylene-2-carboxamide]
– | 6.1 | Cc1cc(Oc2ccccc2)ccc1N1C(=O)Nc2c(C(=O)NCCN3CCOC[C@@H]3C)sc3nccc1c23 [Example 291, (S)-5-(2-Methyl-4-phenoxyphenyl)-N-(2-(3-methylmorpholino)ethyl)-4-oxo-4,5-dihydro-3H-1-thia-3,5,8-triazaacenaphthylene-2-carboxamide]
– | 6.1 | Cc1cc(Oc2cccnc2)ccc1N1C(=O)Nc2c(C(=O)N[C@@H]3CCCN(C)C3)sc3nccc1c23 [Example 293, (R)-5-(2-Methyl-4-(pyridin-3-yloxy)phenyl)-N-(1-methylpiperidin-3-yl)-4-oxo-4,5-dihydro-3H-1-thia-3,5,8-triazaacenaphthylene-2-carboxamide]
– | 6.1 | C=CC(=O)N1CCC[C@@H](NC(=O)c2sc3nccc4c3c2NC(=O)N4c2cccc(Cl)c2)C1 [Example 294, (R)—N-(1-Acryloylpiperidin-3-yl)-5-(3-chlorophenyl)-4-oxo-4,5-dihydro-3H-1-thia-3,5,8-triazaacenaphthylene-2-carboxamide]
– | 6.1 | Cc1cc(Oc2ccc(F)cc2)ccc1N1C(=O)Nc2c(C(=O)N[C@@H]3CCCN(C)C3)sc3nccc1c23 [Example 295, (R)-5-(4-(4-Fluorophenoxy)-2-methylphenyl)-N-(1-methylpiperidin-3-yl)-4-oxo-4,5-dihydro-3H-1-thia-3,5,8-triazaacenaphthylene-2-carboxamide]
– | 6.1 | Cc1cc(Oc2ccccc2)ccc1N1C(=O)Nc2c(C(=O)NCCN3CCOC[C@H]3C)sc3nccc1c23 [Example 296, (R)-5-(2-Methyl-4-phenoxyphenyl)-N-(2-(3-methylmorpholino)ethyl)-4-oxo-4,5-dihydro-3H-1-thia-3,5,8-triazaacenaphthylene-2-carboxamide]
– | 6.1 | Cc1cc(OC2CCCC2)ccc1N1C(=O)Nc2c(C(=O)N[C@@H]3CCCN(C)C3)sc3nccc1c23 [Example 297, (R)-5-(4-(Cyclopentyloxy)-2-methylphenyl)-N-(1-methylpiperidin-3-yl)-4-oxo-4,5-dihydro-3H-1-thia-3,5,8-triazaacenaphthylene-2-carboxamide]
– | 6.1 | Cc1cc(Oc2ccccc2)ccc1N1C(=O)Nc2c(C(=O)NCCC3CCCN3C)sc3nccc1c23 (centres unmarked) [Example 298, 5-(2-Methyl-4-phenoxyphenyl)-N-(2-(1-methylpyrrolidin-2-yl)ethyl)-4-oxo-4,5-dihydro-3H-1-thia-3,5,8-triazaacenaphthylene-2-carboxamide]
– | 6.1 | C=CC(=O)N1CC[C@@H](NC(=O)c2sc3nccc4c3c2NC(=O)N4c2ccc(OC)cc2C)C1 [Example 299, (R)—N-(1-Acryloylpyrrolidin-3-yl)-5-(4-methoxy-2-methylphenyl)-4-oxo-4,5-dihydro-3H-1-thia-3,5,8-triazaacenaphthylene-2-carboxamide]
– | 6.0 | C=CC(=O)N1CC[C@@H](NC(=O)c2sc3nccc4c3c2NC(=O)N4c2ccccc2F)C1 [Example 301, (R)—N-(1-Acryloylpyrrolidin-3-yl)-5-(2-fluorophenyl)-4-oxo-4,5-dihydro-3H-1-thia-3,5,8-triazaacenaphthylene-2-carboxamide]
– | 6.0 | Cc1cc(Oc2ccc(F)cc2F)ccc1N1C(=O)Nc2c(C(=O)N[C@@H]3CCCN(C)C3)sc3nccc1c23 [Example 302, (R)-5-(4-(2,4-Difluorophenoxy)-2-methylphenyl)-N-(1-methylpiperidin-3-yl)-4-oxo-4,5-dihydro-3H-1-thia-3,5,8-triazaacenaphthylene-2-carboxamide]

Compound | BTK_I_binding pIC50 [1] | BTK_I_binding pIC50 [2]
Cc1cc(OC2CCC2)ccc1N1C(=O)Nc2c(C(=O)N[C@@H]3CCCN(C)C3)sc3nccc1c23 [Example 284, (R)-5-(4-Cyclobutoxy-2-methylphenyl)-N-(1-methylpiperidin-3-yl)-4-oxo-4,5-dihydro-3H-1-thia-3,5,8-triazaacenaphthylene-2-carboxamide] | – | 6.2
